Reference: patent US9090549B2, “1,4-naphthoquinones derivatives and therapeutic use thereof” (CENTRE NATIONAL DE LA RECHERCHE SCIENTIFIQUE (C.N.R.S.), priority 2008, dated 2015)

What was measured:
[1] = target: P. falciparum glutathione reductase (PfGR) (Plasmodium falciparum, UniProt Q94655); assay: 1,4-Naphthoquinone reductase activity of P. falciparum glutathione reductase; format: biochemical; details: for substrate behaviour from catalytic efficiencies kcat/KM: with respect to menadione; for increased catalytic efficiency (kcat/KM) with respect to menadione: relative to menadione
P. falciparum glutathione reductase (PfGR), sequence (Q94655 2-500 limits assumed): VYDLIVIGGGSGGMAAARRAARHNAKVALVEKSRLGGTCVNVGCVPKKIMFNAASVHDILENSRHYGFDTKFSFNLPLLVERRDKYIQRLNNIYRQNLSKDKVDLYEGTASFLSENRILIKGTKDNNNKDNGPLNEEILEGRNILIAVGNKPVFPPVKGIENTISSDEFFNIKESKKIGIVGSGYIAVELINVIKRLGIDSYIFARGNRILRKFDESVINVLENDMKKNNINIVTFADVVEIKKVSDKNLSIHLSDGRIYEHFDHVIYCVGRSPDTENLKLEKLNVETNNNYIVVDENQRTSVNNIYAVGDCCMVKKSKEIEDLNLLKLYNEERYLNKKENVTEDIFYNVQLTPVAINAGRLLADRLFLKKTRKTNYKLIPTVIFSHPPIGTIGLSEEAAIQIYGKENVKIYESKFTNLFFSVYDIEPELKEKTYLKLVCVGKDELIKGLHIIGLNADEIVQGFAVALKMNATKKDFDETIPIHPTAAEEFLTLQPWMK
Method: The reduction assay mixture consisted of 100 mM potassium phosphate buffer pH 6.9, 200 mM KCl, 1 mM EDTA and 100 μM NADPH in a total volume of 1 mL. 1,4-naphthoquinone reductase activity was determined by recording the initial velocities in the presence of increasing naphthoquinone concentrations (0-300 μM). […] For the determination of KM and Vmax values, the steady-state rates were fitted by using nonlinear regression analysis software (Kaleidagraph) to the Michaelis-Menten equation. From these values, the turnover number kcat and the catalytic efficiency kcat/KM were calculated.

[2] = target: methemoglobin(Fe3+) (Homo sapiens, UniProt P68871+P69905); assay: Redox-cycling of methemoglobin(Fe3+) into oxyhemoglobin(Fe2+) with NADPH/GR system; format: biochemical
methemoglobin(Fe3+), sequence (P69905 2-142 limits assumed): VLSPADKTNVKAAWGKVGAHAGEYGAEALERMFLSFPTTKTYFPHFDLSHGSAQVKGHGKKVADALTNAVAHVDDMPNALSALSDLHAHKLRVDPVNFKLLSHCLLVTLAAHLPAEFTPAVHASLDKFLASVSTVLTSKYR
methemoglobin(Fe3+), sequence (P68871 2-147 limits assumed): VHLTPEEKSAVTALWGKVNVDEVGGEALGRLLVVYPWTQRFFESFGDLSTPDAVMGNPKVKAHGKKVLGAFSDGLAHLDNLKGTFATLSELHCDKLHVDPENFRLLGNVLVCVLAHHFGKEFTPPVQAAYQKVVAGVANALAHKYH
Source text: Since FPIX(Fe^2+) is an inhibitor of hematin polymerization, compounds displaying the ability to reduce FPIX(Fe^3+) into FPIX(Fe^2+) might synergistically contribute with GR inhibition to increased oxidative stress in infected-red blood cells. To evaluate the redox-cycling activity of FPIX(Fe^3+) into FPIX(Fe^2+) we set up an assay using the naphthoquinone, the glutathione reductase/NADPH-based system to regenerate the dihydronaphthoquinone continuously and methemoglobin(Fe^3+) (MetHb). The UV-spectrum of MetHb between 300 nm and 700 nm is characterized by a maximal absorbance at 405 nm and a broad band centered at around 630 nm. […] We used 20 μM methylene blue as positive control of this redox-cycling activity.
In an Eppendorf tube containing 6.4 mg MetHb dissolved in 885 μL GR buffer (47 mM potassium phosphate buffer pH 6.9, 200 mM KCl, 100 mM EDTA), 10 μL 20 mM P_TM25 dissolved in DMSO and 100 μL NADPH dissolved in GR buffer were added. The reaction was started by the addition of 5 μL human GR and then incubated at 37° C. In a 1 mL cuvette 20 μL of the reaction mixture was diluted with 980 μL GR buffer and a UV-spectra between 300 nm and 700 nm was done after 5 min, 10 min, 20 min and 30 min incubation time. The final concentrations in the reaction mixture were 100 μM MetHb, 200 μM P_TM25, 400 μM NADPH and […] hGR, final DMSO concentration 1%.
Spectra were measured after 5 min (blue), 10 min (black), 20 min (green) and 30 min (red).

[3] = test system: P. falciparum chloroquine resistant strain K1; assay: K1 growth inhibition, 3H-hypoxanthine assay; format: cell-based, Plasmodium falciparum; details: Plasmodium falciparum, K1; read-out: IC50 against Pf K1
Method: (§1) The IC50 values against Pf-GHA and MRC-5 were determined by using the less sensitive colorimetric NBT-based lactate dehydrogenase assay (Makler et al, Am. J. Trop. Med. Hyg. 1993, 48 (6), 739-741) based on redox-reactions.
(§2) Parasite Cultures. […] P. falciparum in vitro culture was carried out using standard protocols (Trager et al, 1976 Science, 193, 673-675) with modifications. Briefly, parasites were maintained in tissue culture flasks in human A Rh+ erythrocytes at 5% hematocrit in RPMI 1640 supplemented with 25 mM HEPES, 24 mM NaHCO3, 0.2% (w/v) glucose, 0.03% L-glutamine, 150 μM hypoxanthine, and 0.5% Albumax II® (Invitrogen) in a 5% CO2/air mixture at 37° C., and the medium was changed daily.
(§3) In Vitro Antiparasitic Bioassays. Drug susceptibility of P. falciparum was studied using a modified method (Cameron et al, 2004 J. Biol. Chem. 279, 31429-31439) of the protocol described previously (Desjardins et al, 1979). All assays included CQ diphosphate (Sigma, UK) as a standard and control wells with untreated infected and uninfected erythrocytes. IC50 values were derived by sigmoidal regression analysis (Microsoft Xlfit™).

[4] = test system: Pf-GHA; assay: Pf-GHA growth inhibition, colorimetric NBT-based lactate dehydrogenase assay; format: cell-based; details: Plasmodium falciparum; 72 h incubation; read-out: IC50 against Pf-GHA
Method: as §1
In Vitro Antiparasitic Bioassays. The strain is maintained in RPMI-1640 medium supplemented with 0.37 mM hypoxanthine, 25 mM HEPES, 25 mM NaHCO3, and 10% O^+ human serum together with 2-4% washed human O^+ erythrocytes. All cultures and assays are conducted under an atmosphere of 4% CO2, 3% O2 and 93% N2. Assays are performed in 96-well microtiter plates, each well containing 10 μL of the watery compound dilutions together with 190 μL of the malaria parasite inoculum (1% parasitaemia, 2% HCT). After 72 h incubation, plates are frozen and stored at −20° C. After thawing, 20 μL of each well is transferred into another plate together with 100 μL Malstat reagent and 20 μL of 1/1 mixture of PES (phenazine ethosulfate, 0.1 mg/mL) and NBT (Nitro Blue Tetrazolium Grade III, 2 mg/mL). Change in colour is measured spectrophotometrically at 655 nm. The results are expressed as % reduction in parasitaemia compared to control wells. Compounds are treated at 5 concentrations (64-16-4-1 and 0.25 μM or μg/mL).

[5] = test system: P. falciparum chloroquine sensitive strain 3D7; assay: 3D7 growth inhibition, 3H-hypoxanthine assay; format: cell-based, Plasmodium falciparum; details: Plasmodium falciparum, 3D7; read-out: IC50 against Pf 3D7
Method: as §1, §2, §3

[6] = test system: P. falciparum multidrug-resistant strain Dd2; assay: Dd2 growth inhibition, 3H-hypoxanthine assay; format: cell-based, Plasmodium falciparum; details: Plasmodium falciparum, DD2, 48 h exposure then 24 h hypoxanthine; read-out: IC50 against Dd2
Method: The IC50 was tested by standard in vitro antiproliferation assays (Desjardins et al, 1979 Antimicrob. Agents Chemother 1979, 16, 710-718). Infected erythrocytes in ring stage (0.5% parasitemia, 2.5% hematocrit) in 96-well plates were exposed to the compounds for 48 h and then to radioactive hypoxanthine for 24 h. The amount of radioactivity in precipitable material served as an index of cell proliferation.

[7] = test system: P. berghei ANKA; assay: In vivo 4-day suppressive test in P. berghei-infected mice; design: species or system Plasmodium berghei; details: for activity on 4-day treatment: P. berghei-infected mice
Method: The in vivo tests in the mouse model were done according to a standard protocol (Peters et al Handbook of Animal Models of Infection; Academic Press, London, 1999; pp. 756-771). […] […] For administration, compounds were freshly prepared in 10% DMSO in sterile phosphate-buffered saline the day of use. Two hours post-infection mice received the first treatment by the intraperitoneal route. Mice were further treated on days +1-3. Blood films from tail blood were prepared on day +4, and parasitaemia was determined by microscopic examination of Giemsa-stained blood films. […] […] Mice were treated and levels of parasitemia determined as described.

[8] = target: T1, human glutathione reductase (hGR) (Homo sapiens, UniProt P00390); assay: Inhibition of human glutathione reductase under steady-state conditions; format: biochemical; details: pH 6.9, 25° C., 1 mM GSSG, 100 μM NADPH
T1 sequence (P00390 44-522): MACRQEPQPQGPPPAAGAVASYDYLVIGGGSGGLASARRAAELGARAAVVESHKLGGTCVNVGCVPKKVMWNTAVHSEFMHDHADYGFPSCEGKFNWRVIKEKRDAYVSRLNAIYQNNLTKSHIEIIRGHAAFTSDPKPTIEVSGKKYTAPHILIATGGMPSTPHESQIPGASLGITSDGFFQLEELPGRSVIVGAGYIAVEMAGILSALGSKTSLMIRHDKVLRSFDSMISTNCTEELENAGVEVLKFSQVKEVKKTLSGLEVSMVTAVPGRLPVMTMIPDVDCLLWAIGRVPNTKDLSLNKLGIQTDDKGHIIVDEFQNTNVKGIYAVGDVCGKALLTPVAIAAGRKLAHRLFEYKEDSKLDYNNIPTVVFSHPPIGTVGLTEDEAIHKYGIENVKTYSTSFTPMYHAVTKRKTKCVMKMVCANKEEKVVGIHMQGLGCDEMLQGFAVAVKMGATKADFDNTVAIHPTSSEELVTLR

IC50 [6] | Molecule | substrate behaviour from catalytic efficiencies kcat/KM [1] | IC50 [4] | melting point | also measured
– | 2-Methyl-3-(fluoro-benzoyl)-4a,8a-dihydro-[1,4]naphthoquinone [P_TM27] | very effective substrates | – | – | Km ([1]; pH 6.9, 100 μM NADPH, 1% DMSO): 56.1 µM
– | CN(C)c1ccc2nc3ccc(=[N+](C)C)cc-3sc2c1 [Methylene Blue, reference compound] | – | – | – | shift of λmax of MetHb ([2]; 20 μM Methylene Blue, same conditions): clear shift
0.791 µM | CC1=C(Cc2ccc(C)cc2)C(=O)C2C=CC=CC2C1=O (stereo not shown) [P_TM21, 2-Methyl-3-(4-methyl-benzyl)-4a,8a-dihydro-[1,4]naphthoquinone] | – | < 5 µM | 225 °C (dec.) | IC50 [3]: 0.1 µM; IC50 [5]: 0.27 µM
< 0.1 µM | CC1=C(Cc2ccc(Br)cc2)C(=O)C2C=CC=CC2C1=O (stereo not shown) [P_TM24, 2-Methyl-3-(4-bromo-benzyl)-4a,8a-dihydro-[1,4]naphthoquinone] | – | < 5 µM | 121 to 122 °C | decrease in parasitaemia ([7]; daily dose of 50 mg/kg ip, 4-day test, mice): 35.6%; activity on 4-day treatment ([7]; intraperitoneal): significant activity
– | CC1=C(C(=O)c2ccc(Br)cc2)C(=O)C2C=CC=CC2C1=O (stereo not shown) [P_TM25, 2-Methyl-3-(4-bromo-benzoyl)-4a,8a-dihydro-[1,4]naphthoquinone] | very effective substrates | – | 170 to 171 °C | concentration at which the shift of maximal absorbance of MetHb from 405 to 410 nm starts being visible ([2]; 100 μM MetHb, NADPH, human GR): 50 µM; redox-cycling of methemoglobin in the presence of GR ([2]; 200 μM P_TM25, 100 μM MetHb, 400 μM NADPH, human GR, 37° C.): can undergo redox-cycling of methemoglobin
– | CC1=C(Cc2ccc(C(F)(F)F)cc2)C(=O)c2ccccc2C1=O [P_TM29] | – | – | – | IC50 [8]: 1.6 µM
– | COc1ccc(C(=O)C2=C(C)C(=O)C3C=CC=CC3C2=O)cc1 (stereo not shown) [P_TM34, 2-Methyl-3-(4-methoxy-benzoyl)-4a,8a-dihydro-[1,4]naphthoquinone] | very effective substrates | – | 150 to 151 °C | –
< 0.1 µM | CC1=C(Cc2ccc(O)cc2)C(=O)C2C=CC=CC2C1=O (stereo not shown) [P_TM36, 2-Methyl-3-(4-hydroxy-benzyl)-4a,8a-dihydro-[1,4]naphthoquinone] | – | < 5 µM | 165 to 166 °C | activity on 4-day treatment ([7]; intraperitoneal): significant activity
– | CC1=C(C(=O)c2ccc(O)cc2)C(=O)C2C=CC=CC2C1=O (stereo not shown) [P_TM39, 2-Methyl-3-(4-hydroxy-benzoyl)-4a,8a-dihydro-[1,4]naphthoquinone] | very effective substrates | < 5 µM | 184 to 185 °C | –
< 0.1 µM | CC1=C(Cc2ccc(C(C)(C)C)cc2)C(=O)C2C=CC=CC2C1=O (stereo not shown) [P_TM43, 2-Methyl-3-(4-tert-butyl-benzyl)-4a,8a-dihydro-[1,4]naphthoquinone] | – | – | 60 to 61 °C | reduction in parasitaemia ([7]; daily dose of 30 mg/kg, intraperitoneal, 4-day test, mice): 43.4%; activity on 4-day treatment ([7]; intraperitoneal): significant activity
– | CC1=C(C(=O)c2ccc(Br)cc2)C(=O)C2C(O)=CC=CC2C1=O (stereo not shown) [P_TM47, 3-(4-bromo-benzoyl)-5-hydroxy-2-methyl 4a,8a-dihydro-[1,4]naphthoquinone] | very effective substrates | – | 161 to 162 °C | increased catalytic efficiency (kcat/KM) with respect to menadione [1]: 6.3 fold
– | CC1=C(CC2=CC(=O)C=CC2=O)C(=O)C2C=CC=CC2C1=O (stereo not shown) [P_TM63, 2-(3,6-Dioxo-cyclohexa-1,4-dienylmethyl)-3-methyl-4a,8a-dihydro-[1,4]naphthoquinone] | very effective substrates | – | – | increased catalytic efficiency (kcat/KM) with respect to menadione [1]: 17.2 fold

Molecule | IC50 [6] | substrate behaviour from catalytic efficiencies kcat/KM [1] | IC50 [4] | melting point | also measured
CC1=C(C(=O)c2ccc([N+](=O)[O-])cc2)C(=O)C2C=CC=CC2C1=O (stereo not shown) [P_TM40, 2-Methyl-3-(4-nitro-benzoyl)-4a,8a-dihydro-[1,4]naphthoquinone] | 0.103 µM | very effective substrates | – | 170 to 171 °C | increased catalytic efficiency (kcat/KM) with respect to menadione [1]: 3.9 fold
